Here are results for 18 molecules from patent US9949968B2, “Diarylalkylamine REV-ERB antagonists and their use as medicaments” (FONDAZIONE ISTITUTO ITALIANO DI TECNOLOGIA, priority 2013, dated 2018).

SMILES strings stand for the structures. Structures can show the parent of a compound that is named as a salt.

By EC50 is commonly meant the concentration at which the effect is half-maximal. For orientation: GI50 means the concentration at which growth is held to half of that of the control.

In one assay the test system is REV-ERB. Briefly: Luciferase-based assay of REV-ERB mediated transcriptional regulation (RevRE/SV40-CLuc reporter in HEK-293 cells). It is filed as cell-based. The settings on record: HEK-293 cells transfected with RevRE reporter and REV-ERBα and/or β; read 24 h post-transfection; read-out: REV-ERB antagonism EC50. The text has this:
Luciferase-Base Assay to Assess the Activity of the Compounds on REV-ERB Mediated Transcriptional Regulation
In order to assess the effect of the compounds of the invention on REV-ERB activity the inventors exploited the ability of REV-ERB to repress gene transcription of a specific DNA cis-element. In fact, the DNA binding domain (DBD) of REV-ERB recognizes specific DNA sequences (called RevREs=Rev-erb Responsive Elements) which contains an AGGTCA motif linked in 5′ to an A/T rich sequence harboring the following consensus: A/T A A/T N T (Harding et al., Mol Cell Biol., 1993; 13:3113).
Therefore, two repetitions of the RevRE consensus AGAATGTAGGTCA (SEQ ID NO: 13) upstream a SV40 promoter driving the expression of a reporter gene were cloned. As reported, the luciferase enzyme from the ostracod Cypridina noctiluca was adopted. […] Cypridina luciferase (CLuc) is secreted from cells by virtue of its natural signal peptide and its luminescence can be measured from the supernatant of transfected cells. Therefore, cell lysis is not necessary. Secreted CLuc is a very stable protein. Because of this property, the activity measured from the supernatant reflects the amount of protein accumulated up to the time of sampling. Multiple samples can therefore be obtained from the same transfected cells, allowing an easy set-up of time-course experiments. In addition, the direct use of the supernatant makes the system easily prone to automation for High Throughput Screening.
In order to normalize the experiment for the transfection efficiency, it was used a plasmid containing a SV40 promoter driving the expression of a secreted form of human alkaline phosphatase (SEAP), which enzymatic activity in the supernatant can be measured with chemiluminescence substrates.
To be able to rule out false-positive, for example due to the interference of the compounds to be tested with the fluorescence and/or chemiluminescence reactions, it was used as control a mutated version of the RevRE (GAGCCCGTAGGTCA) (SEQ ID NO: 14) that is no longer able to bind REV-ERB DBD (Harding et al., Mol Cell Biol., 1993; 13:3113).
The person skilled in the art will appreciate that an agonist will improve the ability of REV-ERB to repress the transcription, reducing the luminescence signal, while an antagonist will produce the opposite effect.
For the assay, HEK-293 cells were transfected with the reporter vectors and a plasmid expressing the REV-ERBα and/or β protein. After 6 h from transfection, the medium was replaced with fresh medium containing different doses of the compounds or vehicle (DMSO). After 24 h post-transfection, the supernatant was analyzed for the secreted luciferase and AP activity according to the manufacture instruction. Data normalized as fold activation versus vehicle (DMSO) were fitted using a four-parameter dose-response curve to calculate the EC50 of the different compounds.
(§1) The different compounds were tested for their ability to inhibit the growth of the tumorigenic breast cancer cells BT-474 and for their antagonistic activity toward REV-ERB transcriptional repression, as described in the biological method section.
For the cell growth inhibition (GI) the growth inhibition 50 (GI50) and the growth inhibition max (GImax) are reported. […] The bottom plateaus of the curve was used to calculate the Growth Inhibition max (GImax), defined as the percentage of the reduction of cells after 48 h upon a saturating dose of the administered compound. Compounds with a GI50<100 μM were also tested for their antagonistic activity toward REV-ERB. […]

Assay [1] relates to tumorigenic breast cancer cells BT-474. Briefly: Growth inhibition assay (CyQUANT Cell Proliferation Assay) in BT-474 cells. Format: cell-based. The settings on record: Homo sapiens; for GI50: 48 h, CyQUANT, read-out: Cell Growth Inibition GI50; for Emax: reduction of cells after 48 h at saturating dose, read-out: Cell Growth Inibition GImax.
Text: Given that REV-ERB target genes include several metabolic regulators, such as Pgc-1α and Nampt, it was decided to test the cell proliferation with a method that is independent from the metabolic state of the cell.
The CyQUANT® Cell Proliferation Assay Kit (Invitrogen) was used, an assay that has a linear detection range extending from 50 or fewer to at least 250,000 cells.
Frozen cells are simply thawed and lysed by addition of a buffer containing the CyQUANT®.
For the assay, tumorigenic breast cancer cells BT-474 cells were seeded at 2500 cells per well in a 96-well plate and incubated over-night at 37° C. Then, fresh medium containing different concentration of the compounds or vehicle (DMSO) was added and cells were growth 48 h at 37° C. Finally, cells were frozen at […] and then processed according to the manufacture instructions. A minimum of triplicate data for each dose was used for the analysis.
Data were collected and analyzed with Prism 5 software to calculate the growth inhibition curve.
In particular, values obtained from the DMSO treated cells was set at 100% of growth. Data from treatment of cells with serial dilutions of the compounds were normalized versus the DMSO group and fitted using a four-parameter dose-response curve.
GI50 was calculated as the concentration of compound that gives a response half way between bottom and top plateaus of the fitted curve.
The bottom plateaus of the fitted curve was used to calculate the Growth Inhibition max (GImax), defined as the percentage of the reduction of cells after 48 h upon a saturating dose of compound.
as §1
For the cell growth inhibition (GI) the growth inhibition 50 (GI50) and the growth inhibition max (GImax) are reported. […] The bottom plateaus of the curve was used to calculate the Growth Inhibition max (GImax), defined as the percentage of the reduction of cells after 48 h upon a saturating dose of the administered compound. Compounds with a GI50<100 μM were also tested for their antagonistic activity toward REV-ERB. For these compounds, the EC50 value is provided, calculated as the concentration of compound that gives a response half between the bottom (expression of the reporter in absence of compound) and the top (expression of the reporter at saturating doses of compound) plateaus of the fitted curves (see biological method section for a description of the reported assay). n.d.=not determined; n.t.=not tested.

Turning to `CN1CCC(Cc2cccc(CNC3(c4ccccc4F)CCCC3)c2)CC1` [Example 18, 1-(2-fluorophenyl)-N-[[3-[1-methyl-4-piperidyl)methyl]phenyl]methyl]cyclopentanamine dihydrochloride], the EC50 in the assay with REV-ERB turned out to be 8 µM. In addition, in assay [1], the GI50 amounted to 2 µM and the Emax is 95%.

Consider `COc1cccc(C2(NCc3ccc(O)c(CN4CCN(C)CC4)c3)CCCC2)c1` [Example 27, 4-[[[1-(3-Methoxyphenyl)cyclopentyl]amino]methyl]-2-[(4-methylpiperazin-1-yl)methyl]phenol trihydrochloride], for which the EC50 with REV-ERB worked out at 16 µM. In addition, in assay [1], the GI50 amounted to 12 µM and the Emax amounted to 70%.

Consider `COc1ccc(CNC2(c3ccccc3F)CCCC2)cc1CN1CCN(C)CC1` [Example 5, 1-(2-Fluorophenyl)-N-[[4-methoxy-3-[(4-methylpiperazin-1-yl)methyl]-phenyl]methyl]cyclopentanamine trihydrochloride], for which, in the assay with REV-ERB, the EC50 turned out to be 43 µM. Moreover, in assay [1], the GI50 was found to be 26 µM and the Emax was determined as 75%.

Take `Oc1ccc(CNC2(c3ccccc3F)CCCC2)cc1CN1CCN(c2ccccc2)CC1` [Example 9, 4-[[[1-(2-Fluorophenyl)cyclopentyl]amino]methyl]-2-[(4-phenylpiperazin-1-yl)methyl]phenol trihydrochloride]: the EC50 in the assay on REV-ERB amounted to 50 µM. In addition, in assay [1], the GI50 turned out to be 30 µM and the Emax stood at 50%.

Turning to `COc1ccccc1C1(NCc2ccc(O)c(CN3CCN(C)CC3)c2)CCCC1` [Example 14, 4-{[1-(2-Methoxy-phenyl)-cyclopentyl-amino]-methyl}-2-(4-methylpiperazin-1-ylmethyl)-phenol trihydrochloride], in the assay on REV-ERB, the EC50 worked out at 23 µM. Besides, in assay [1], the GI50 came out at 19 µM and the Emax turned out to be 82%.

Regarding `CN1CCN(Cc2cc(CNC3(c4ccccc4)CCCC3)ccc2O)CC1` [Example 7, 2-[(4-Methylpiperazin-1-yl)methyl]-4-[[(1-phenylcyclopentyl)amino]methyl]-phenol trihydrochloride], the concentration for a half-maximal effect (EC50) in the assay on REV-ERB was 24 µM. In addition, in assay [1], the GI50 is 18 µM and the Emax was 70%.

As to `CN1CCC(Cc2cccc(CNC3(c4ccccc4F)CCOCC3)c2)CC1` [Example 30, 4-(2-Fluorophenyl)-N-[[3-[(1-methyl-4-piperidyl)methyl]phenyl]methyl]tetrahydropyran-4-amine dihydrochloride], the EC50 in the assay with REV-ERB stood at 6 µM. Further, in assay [1], the GI50 was 3 µM and the Emax amounted to 95%.

As to `CN1CCC(Cc2cccc(CN(C)C3(c4ccccc4F)CCCC3)c2)CC1` [Example 19, 1-(2-fluorophenyl)-N-methyl-N-[[3-[(1-methyl-4-piperidyl)methyl]phenyl]methyl]cyclopentanamine dihydrochloride], in the assay on REV-ERB, the EC50 came out at 11 µM. Also, in assay [1], the concentration for 50% growth inhibition (GI50) was found to be 5 µM and the Emax turned out to be 90%.

In the case of `CN1CCN(Cc2cc(CNC3(c4ccccc4F)CCC(F)(F)CC3)ccc2O)CC1` [Example 17, 4-[[[4,4-difluoro-1-(2-fluorophenyl)cyclohexyl]amino]methyl]-2-[(4-methyl-piperazin-1-yl)methyl]phenol trihydrochloride], in the assay on REV-ERB, the EC50 came out at 21 µM. In addition, in assay [1], the GI50 is 18 µM and the Emax worked out at 90%.

`CN1CCN(Cc2cc(CNC3(c4ccc(F)cc4)CCCC3)ccc2O)CC1` [Example 23, 4-[[[1-(4-Fluorophenyl)cyclopentyl]amino]methyl]-2-[(4-methylpiperazin-1-yl)methyl]phenol trihydrochloride]: the concentration giving a half-maximal response (EC50) in the assay on REV-ERB worked out at 10 µM. For the same molecule, in assay [1], the GI50 was 10 µM and the Emax was 90%.

In the case of `CN1CCN(Cc2cc(CNC3(c4cccc(F)c4)CCCC3)ccc2O)CC1` [Example 22, 4-[[[1-(3-Fluorophenyl)cyclopentyl]amino]methyl]-2-[(4-methylpiperazin-1-yl)methyl]phenol trihydrochloride], the EC50 in the assay with REV-ERB worked out at 15 µM. Moreover, in assay [1], the GI50 is 14 µM and the Emax is 80%.

As to `CN1CCN(Cc2cc(CNC3(c4ccccc4F)CCC3)ccc2O)CC1` [Example 33, 4-[[[1-(2-Fluorophenyl)cyclobutyl]amino]methyl]-2-[(4-methylpiperazin-1-yl)methyl]phenol trihydrochloride], the EC50 in the assay with REV-ERB turned out to be 38 µM. In addition, in assay [1], the GI50 worked out at 30 µM and the Emax was 70%.

For the molecule `Oc1ccc(CNC2(c3ccccc3F)CCCC2)cc1CN1CCNCC1` [Example 11, 4-[[[1-(2-Fluorophenyl)cyclopentyl]amino]methyl]-2-(piperazin-1-ylmethyl)-phenol], the EC50 with REV-ERB stood at 40 µM. Also, in assay [1], the GI50 worked out at 24 µM and the Emax worked out at 70%.

In the case of `CN1CCN(Cc2cccc(CNC3(c4ccccc4F)CCCC3)c2)CC1` [Example 4, 1-(2-Fluorophenyl)-N-[[3-[(4-methylpiperazin-1-yl)methyl]phenyl]methyl]-cyclopentanamine trihydrochloride], the concentration giving a half-maximal response (EC50) with REV-ERB is 47 µM. In addition, in assay [1], the GI50 was 30 µM and the Emax is 73%.

Turning to `Oc1ccc(CNC2(c3ccccc3F)CCCC2)cc1CN1CCCCC1` [Example 2, 4-[[[1-(2-Fluorophenyl)cyclopentyl]amino]methyl]-2-(1-piperidylmethyl)phenol dihydrochloride], in the assay on REV-ERB, the EC50 was 45 µM. Besides, in assay [1], the GI50 was 30 µM and the Emax is 55%.

On to `CN1CCC(Cc2cccc(CNC3(c4ccc(F)cc4)CCCC3)c2)CC1` [Example 32, 1-(4-Fluorophenyl)-N-[[3-[(1-methyl-4-piperidyl)methyl]phenyl]methyl]cyclopentanamine dihydrochloride], for which the EC50 in the assay on REV-ERB was 2 µM. In assay [1], the GI50 is 1 µM and the Emax was 97%.

On to `CN1CCN(Cc2cc(CNC3(c4ccccc4F)CCCCC3)ccc2O)CC1` [Example 3, 4-[[[1-(2-Fluorophenyl)cyclohexyl]amino]methyl]-2-[(4-methylpiperazin-1-yl)methyl]phenol trihydrochloride], for which the EC50 in the assay with REV-ERB came out at 20 µM. For the same molecule, in assay [1], the GI50 was 14 µM and the Emax was found to be 95%.

As to `Fc1ccccc1C1(NCc2cccc(CN3CCCCC3)c2)CCCC1` [Example 21, 1-(2-Fluorophenyl)-N-[[3-(1-piperidylmethyl)phenyl]methyl]cyclopentanamine dihydrochloride], the EC50 in the assay on REV-ERB was determined as 35 µM. Moreover, in assay [1], the GI50 is 50 µM and the Emax worked out at 76%.
